The results in this text go back to patent publication US20260258035A1, “FIVE-MEMBERED AND SIX-MEMBERED NITROGEN-CONTAINING COMPOUND, AND INTERMEDIATE, PREPARATION METHOD AND USE THEREOF” (HANGZHOU SYNRX THERAPEUTICS BIOMEDICAL TECHNOLOGY CO., LTD., priority 2022, published 2026).

The test concerns the target PARG (Homo sapiens, UniProt Q86W56). The test can be described thus: Biochemical assay (PARG, TFMU-ADPr substrate).
The mark [1] stands for this setting: 4 nM PARG, 66.2 uM TFMU-ADPr, 3 min at room temperature.

Each structure is given as a SMILES string.

PARG, sequence (Q86W56 whole entry): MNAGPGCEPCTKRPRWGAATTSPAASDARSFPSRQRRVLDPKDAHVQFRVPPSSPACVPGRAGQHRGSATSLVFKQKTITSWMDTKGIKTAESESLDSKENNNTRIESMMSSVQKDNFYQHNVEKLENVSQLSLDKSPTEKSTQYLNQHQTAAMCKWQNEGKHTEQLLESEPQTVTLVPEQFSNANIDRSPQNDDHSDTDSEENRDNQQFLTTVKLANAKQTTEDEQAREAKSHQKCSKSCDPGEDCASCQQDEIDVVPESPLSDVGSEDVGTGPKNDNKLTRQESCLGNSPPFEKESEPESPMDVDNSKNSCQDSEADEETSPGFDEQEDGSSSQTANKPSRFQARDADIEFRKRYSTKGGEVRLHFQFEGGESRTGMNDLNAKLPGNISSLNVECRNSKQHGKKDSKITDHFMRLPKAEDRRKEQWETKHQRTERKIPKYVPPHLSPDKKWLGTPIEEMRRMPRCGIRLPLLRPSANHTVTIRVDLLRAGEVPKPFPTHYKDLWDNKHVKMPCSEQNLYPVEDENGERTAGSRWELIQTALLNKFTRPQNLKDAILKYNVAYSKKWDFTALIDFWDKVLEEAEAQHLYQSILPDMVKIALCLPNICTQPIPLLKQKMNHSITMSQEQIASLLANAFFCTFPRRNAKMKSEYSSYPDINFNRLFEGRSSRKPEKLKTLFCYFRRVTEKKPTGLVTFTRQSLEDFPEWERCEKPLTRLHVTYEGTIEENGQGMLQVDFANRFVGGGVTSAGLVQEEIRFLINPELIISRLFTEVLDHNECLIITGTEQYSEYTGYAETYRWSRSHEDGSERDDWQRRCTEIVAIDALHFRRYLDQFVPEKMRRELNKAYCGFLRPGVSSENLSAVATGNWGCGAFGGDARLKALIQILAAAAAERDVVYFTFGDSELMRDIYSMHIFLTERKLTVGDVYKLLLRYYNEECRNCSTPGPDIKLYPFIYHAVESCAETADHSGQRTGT

Take `N#CC1(NS(=O)(=O)c2cc(N3CCC(OCC(F)(F)F)CC3)c3cnc(-c4nnc(C(F)F)s4)n3c2)CC1` [Example 47, N-(1-cyanocyclopropyl)-3-(5-(difluoromethyl)-1,3,4-thiadiazol-2-yl)-8-(4-(2,2,2-trifluoroethoxy)piperidin-1-yl)imidazo[1,5-a]pyridine-6-sulfonamide]: the IC50 runs as follows: under setting [1], less than 100 nM; (PARG, TFMU-ADPr substrate) 5.91 nM. Take `N#CC1(NS(=O)(=O)c2cc(N3CCC(OC(F)(F)F)CC3)c3cnc(-c4nnc(C(F)F)s4)n3c2)CC1` [Example 48, N-(1-cyanocyclopropyl)-3-(5-(difluoromethyl)-1,3,4-thiadiazol-2-yl)-8-(4-(trifluoromethoxy)piperidin-1-yl)imidazo[1,5-a]pyridine-6-sulfonamide]: the IC50 is, setting by setting: under setting [1], less than 100 nM; (PARG, TFMU-ADPr substrate) 13.2 nM. On to `CC(C)C(=O)N1CCN(c2cc(S(=O)(=O)NC3(COC(F)(F)F)CC3)cn3c(-c4nnc(C(F)F)s4)ncc23)CC1` [Example 49, 3-(5-(difluoromethyl)-1,3,4-thiadiazol-2-yl)-8-(4-isobutyrylpiperazin-1-yl)-N-(1-((trifluoromethoxy)methyl)cyclopropyl)imidazo[1,5-a]pyridine-6-sulfonamide], for which the half-maximal inhibitory concentration (IC50) under setting [1] was less than 100 nM and the IC50 (PARG, TFMU-ADPr substrate) was 38.4 nM.

Turning to `CC1(O)CCN(c2cc(S(=O)(=O)NC3(CF)COC3)cn3c(-c4nnc(C(F)F)s4)ncc23)CC1` [Example 73, 3-(5-(difluoromethyl)-1,3,4-thiadiazol-2-yl)-N-(3-(fluoromethyl)oxetan-3-yl)-8-(4-hydroxy-4-methylpiperidin-1-yl)imidazo[1,5-a]pyridine-6-sulfonamide], the IC50 under setting [1] was less than 100 nM and the midpoint of inhibition (PARG, TFMU-ADPr substrate), the IC50, lay at 41.7 nM. For `N#CC1(NS(=O)(=O)c2cc(N3CC4COCC4C3)c3cnc(-c4nnc(C(F)F)s4)n3c2)CC1` (stereo not shown) [Example 79, N-(1-cyanocyclopropyl)-3-(5-(difluoromethyl)-1,3,4-thiadiazol-2-yl)-8-(tetrahydro-1H-furo[3,4-c]pyrrol-5(3H)-yl)imidazo[1,5-a]pyridine-6-sulfonamide] the same measures were less than 100 nM and 52.5 nM. The compound `CC(C)C(=O)N1CCN(c2cc(S(=O)(=O)N[C@H]3C[C@@H]3F)cn3c(-c4nnc(C(F)F)s4)ncc23)CC1` [Example 81, 3-(5-(difluoromethyl)-1,3,4-thiadiazol-2-yl)-N-((1S,2S)-2-fluorocyclopropyl)-8-(4-isobutyrylpiperazin-1-yl)imidazo[1,5-a]pyridine-6-sulfonamide] gave a half-inhibitory concentration (IC50) under setting [1] greater than 1000 nM. In turn, `CC(N1CCN(c2cc(S(=O)(=O)NC3(C#N)CC3)cn3c(-c4nnc(C(F)F)s4)ncc23)C[C@H]1C)C(F)(F)F` (stereo partly drawn) [Example 83, N-(1-cyanocyclopropyl)-3-(5-(difluoromethyl)-1,3,4-thiadiazol-2-yl)-8-((3R)-3-methyl-4-(1,1,1-trifluoropropan-2-yl)piperazin-1-yl)imidazo[1,5-a]pyridine-6-sulfonamide] registered a concentration for half-maximal inhibition (IC50) under setting [1] of 100 to 500 nM and an IC50 (PARG, TFMU-ADPr substrate) of 347 nM. For `N#CC1(NS(=O)(=O)c2cc(N3CCC(O)(C(F)(F)F)CC3)c3cnc(-c4nnc(C(F)F)s4)n3c2)CC1` [Example 89, N-(1-cyanocyclopropyl)-3-(5-(difluoromethyl)-1,3,4-thiadiazol-2-yl)-8-(4-hydroxy-4-(trifluoromethyl)piperidin-1-yl)imidazo[1,5-a]pyridine-6-sulfonamide], in that order: 100 to 500 nM and 115 nM.

`N#CC1(NS(=O)(=O)c2cc(N3CCC(F)(CO)CC3)c3cnc(-c4nnc(C(F)F)s4)n3c2)CC1` [Example 90, N-(1-cyanocyclopropyl)-3-(5-(difluoromethyl)-1,3,4-thiadiazol-2-yl)-8-(4-fluoro-4-(hydroxymethyl)piperidin-1-yl)imidazo[1,5-a]pyridine-6-sulfonamide]: the concentration for half-maximal inhibition (IC50) was less than 100 nM under setting [1] and 34.7 nM (PARG, TFMU-ADPr substrate). For `C[C@@H]1CN(c2cc(S(=O)(=O)NC3(C#N)CC3)cn3c(-c4nnc(C(F)F)s4)ncc23)[C@@H](C)CN1C(=O)C1(C)CC1` [Example 93, N-(1-cyanocyclopropyl)-3-(5-(difluoromethyl)-1,3,4-thiadiazol-2-yl)-8-((2S,5R)-2,5-dimethyl-4-(1-methylcyclopropane-1-carbonyl)piperazin-1-yl)imidazo[1,5-a]pyridine-6-sulfonamide] the same measures were less than 100 nM and 75.9 nM. For the compound `CC1(C(=O)N2CCN(c3cc(S(=O)(=O)NC4(C#N)CC4)cn4c(-c5nnc(C(F)F)s5)ncc34)CC2(C)C)CC1` [Example 95, N-(1-cyanocyclopropyl)-3-(5-(difluoromethyl)-1,3,4-thiadiazol-2-yl)-8-(3,3-dimethyl-4-(1-methylcyclopropane-1-carbonyl)piperazin-1-yl)imidazo[1,5-a]pyridine-6-sulfonamide], the concentration for half-maximal inhibition (IC50) runs as follows: under setting [1], less than 100 nM; (PARG, TFMU-ADPr substrate) 100 nM. Consider `CC1(O)CCN(c2cc(S(=O)(=O)NC3(C)CC3)cn3c(-c4nnc(C(F)F)s4)nnc23)CC1` [Example 116, 3-(5-(difluoromethyl)-1,3,4-thiadiazol-2-yl)-8-(4-hydroxy-4-methylpiperidin-1-yl)-N-(1-methylcyclopropyl)-[1,2,4]triazolo[4,3-a]pyridine-6-sulfonamide], for which the 50% inhibitory concentration (IC50) is, setting by setting: under setting [1], less than 100 nM; (PARG, TFMU-ADPr substrate) 50 nM. On to `C[C@@H]1CN(c2cc(S(=O)(=O)NC3CC3)cn3c(-c4nnc(C(F)F)s4)nnc23)CCN1C(=O)C1(C)CC1` [Example 118, (R)-N-cyclopropyl-3-(5-(difluoromethyl)-1,3,4-thiadiazol-2-yl)-8-(3-methyl-4-(1-methylcyclopropane-1-carbonyl)piperazin-1-yl)-[1,2,4]triazolo[4,3-a]pyridine-6-sulfonamide], for which the half-maximal inhibitory concentration (IC50) runs as follows: under setting [1], less than 100 nM; (PARG, TFMU-ADPr substrate) 72.4 nM. On to `C[C@H]1CN(c2cc(S(=O)(=O)NC3(C)COC3)cn3c(-c4nnc(C(F)F)s4)nc(Cl)c23)C[C@H](CO)O1` [Example 133, 1-chloro-3-(5-(difluoromethyl)-1,3,4-thiadiazol-2-yl)-8-((2R,6S)-2-(hydroxymethyl)-6-methylmorpholino)-N-(3-methyloxetan-3-yl)imidazo[1,5-a]pyridine-6-sulfonamide], for which, under “PARG, TFMU-ADPr substrate”, the midpoint of inhibition, the IC50, lay at 13.2 nM. For `C[C@H]1CN(c2cc(S(=O)(=O)NC3(C)COC3)cn3c(-c4nnc(C(F)(F)F)s4)nc(Cl)c23)C[C@H](C)O1` [Example 134, 1-chloro-8-((2S,6S)-2,6-dimethylmorpholino)-N-(3-methyloxetan-3-yl)-3-(5-(trifluoromethyl)-1,3,4-thiadiazol-2-yl)imidazo[1,5-a]pyridine-6-sulfonamide], half-maximal inhibition (PARG, TFMU-ADPr substrate) (IC50) required 69.2 nM. `N#CC1(NS(=O)(=O)c2cc(-c3ccc4c(c3)CCO4)c3cnc(-c4nnc(C(F)F)s4)n3c2)CC1` [Example 140, N-(1-cyanocyclopropyl)-3-(5-(difluoromethyl)-1,3,4-thiadiazol-2-yl)-8-(2,3-dihydrobenzofuran-5-yl)imidazo[1,5-a]pyridine-6-sulfonamide] showed a 50% inhibitory concentration (IC50) under setting [1] of less than 100 nM and an IC50 (PARG, TFMU-ADPr substrate) of 26.2 nM.

For the compound `N#CC1(NS(=O)(=O)c2cc(-c3ccc(OC(F)(F)F)cc3)c3cnc(-c4nnc(C(F)F)s4)n3c2)CC1` [Example 141, N-(1-cyanocyclopropyl)-3-(5-(difluoromethyl)-1,3,4-thiadiazol-2-yl)-8-(4-(trifluoromethoxy)phenyl)imidazo[1,5-a]pyridine-6-sulfonamide], the IC50 by setting is: under setting [1], 100 to 500 nM; (PARG, TFMU-ADPr substrate) 280 nM.

What is called IC50 is the midpoint of a concentration-inhibition curve. Read a high IC50 as weaker potency in that assay.
